The values below come from ChEMBL document CHEMBL1155518, “Synthesis and structure-activity relationships of long-acting beta2 adrenergic receptor agonists incorporating metabolic inactivation: an antedrug approach” (J Med Chem, 2010).

In data set [1] the target is Beta-1 adrenergic receptor (Homo sapiens, UniProt P08588).
Description: Agonist activity at human recombinant beta-1 adrenergic receptor expressed in CHO cells assessed as induction of intracellular cAMP accumulation after 30 to 45 mins
The target in data set [2] is Beta-2 adrenergic receptor (Homo sapiens, UniProt P07550).
Description: Agonist activity at human recombinant beta2 adrenergic receptor expressed in CHO cells assessed as induction of intracellular cAMP accumulation after 30 to 45 mins
For data set [3], the target named is Beta-3 adrenergic receptor (Homo sapiens, UniProt P13945).
Sequence of Beta-3 adrenergic receptor (P13945 whole entry): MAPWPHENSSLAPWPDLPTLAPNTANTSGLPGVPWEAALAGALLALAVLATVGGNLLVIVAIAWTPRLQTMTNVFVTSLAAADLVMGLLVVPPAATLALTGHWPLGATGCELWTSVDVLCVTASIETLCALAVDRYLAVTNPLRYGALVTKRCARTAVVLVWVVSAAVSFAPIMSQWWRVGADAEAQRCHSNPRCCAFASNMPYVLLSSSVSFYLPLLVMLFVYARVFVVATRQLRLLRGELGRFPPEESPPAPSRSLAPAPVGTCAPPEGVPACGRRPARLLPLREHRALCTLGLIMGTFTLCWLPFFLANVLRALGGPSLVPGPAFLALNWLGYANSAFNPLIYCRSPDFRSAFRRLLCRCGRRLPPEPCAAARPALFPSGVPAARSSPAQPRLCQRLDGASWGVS
Description: Agonist activity at human recombinant beta3 adrenergic receptor expressed in CHO cells assessed as induction of intracellular cAMP accumulation after 30 to 45 mins
For data set [4], the species on record is Cavia porcellus. Put plainly: Bronchodialatory activity against electrically-stimulated contraction in guinea pig trachea assessed as inhibition of recovery of contractile effect measured after 3 hrs of drug washout. Format: functional, tissue-based.
Data set [5] is filed under the species Cavia porcellus. Put plainly: Bronchodialatory activity against electrically-stimulated contraction in guinea pig trachea assessed as inhibition of recovery of contractile effect measured after 1 hr of drug washout. The class given is functional, tissue-based.
Data set [6] can be described thus: Bronchodialatory activity against electrically-stimulated contraction in guinea pig trachea assessed as time taken for inducing 50% maximum relaxant effect.
The nature of data set [7]: Solubility at pH 7.4. The class given is physicochemical. The settings on record: buffer.
Data set [8] concerns Cavia porcellus. Put plainly: Ex vivo bronchodilatory activity against histamine-induced bronchospasm in guinea pig assessed as time taken for 50% recovery of bronchospasm at EC90 administered via nebulizer. Format: functional.
Data set [9] is described as follows: Oral bioavailability in rat. The settings on record: in vivo. Format: ADME, organism-based.
Data set [10] has as its system Cavia porcellus. Put plainly: Ex vivo bronchodilatory activity in guinea pig assessed as protection against histamine-induced bronchospasm administered via nebulizer. Format: functional.
Data set [11] is described as follows: Oral bioavailability in Han Wistar rat at 2 mg/kg after 8 hrs by LC/MS/MS analysis. The class given is ADME, organism-based. Particulars: in vivo.
The nature of data set [12]: Cmax in Han Wistar rat at 2 mg/kg, po after 8 hrs by LC/MS/MS analysis. The class given is ADME, organism-based. Details: dose 2 mg/kg, route oral. The settings on record: in vivo.
A short description of data set [13]: Plasma clearance in Han Wistar rat at 0.25 mg/kg, iv after 8 hrs by LC/MS/MS analysis. Format: ADME, organism-based. The arrangement: dose 0.25 mg/kg, route intravenous.
For data set [14], the system named is Cavia porcellus. Put plainly: Ex vivo bronchodilatory activity against histamine-induced bronchospasm in guinea pig assessed as time taken for 50% recovery of bronchospasm at 10-fold EC90 administered via nebulizer. Format: functional.
Data set [15] is described as follows: Half life in Han Wistar rat at 0.25 mg/kg, iv by LC/MS/MS analysis. Format: ADME, organism-based. The arrangement: dose 0.25 mg/kg, route intravenous. Particulars: in vivo.
Data set [16] is described as follows: Volume of distribution at steady state in Han Wistar rat at 0.25 mg/kg, iv after 8 hrs by LC/MS/MS analysis. Particulars: in vivo, read-out: Vdss. Format: ADME, organism-based. Details: dose 0.25 mg/kg, route intravenous.

Calls of active or inactive are those of the source. The calls are words filed in the database; no cut-off is given here. Bounds are passed on as bounds.

Sequence of Beta-2 adrenergic receptor (P07550 whole entry): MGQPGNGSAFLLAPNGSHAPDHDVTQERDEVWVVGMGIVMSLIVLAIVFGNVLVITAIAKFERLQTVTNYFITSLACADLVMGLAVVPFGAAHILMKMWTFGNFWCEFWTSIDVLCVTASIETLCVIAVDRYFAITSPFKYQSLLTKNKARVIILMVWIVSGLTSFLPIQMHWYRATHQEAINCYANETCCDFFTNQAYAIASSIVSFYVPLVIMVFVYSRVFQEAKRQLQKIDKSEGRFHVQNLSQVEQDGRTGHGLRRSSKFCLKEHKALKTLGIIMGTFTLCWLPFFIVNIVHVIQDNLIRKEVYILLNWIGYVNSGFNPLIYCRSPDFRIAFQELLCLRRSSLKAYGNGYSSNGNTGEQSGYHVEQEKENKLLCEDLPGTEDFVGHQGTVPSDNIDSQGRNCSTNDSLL
Sequence of Beta-1 adrenergic receptor (P08588 whole entry): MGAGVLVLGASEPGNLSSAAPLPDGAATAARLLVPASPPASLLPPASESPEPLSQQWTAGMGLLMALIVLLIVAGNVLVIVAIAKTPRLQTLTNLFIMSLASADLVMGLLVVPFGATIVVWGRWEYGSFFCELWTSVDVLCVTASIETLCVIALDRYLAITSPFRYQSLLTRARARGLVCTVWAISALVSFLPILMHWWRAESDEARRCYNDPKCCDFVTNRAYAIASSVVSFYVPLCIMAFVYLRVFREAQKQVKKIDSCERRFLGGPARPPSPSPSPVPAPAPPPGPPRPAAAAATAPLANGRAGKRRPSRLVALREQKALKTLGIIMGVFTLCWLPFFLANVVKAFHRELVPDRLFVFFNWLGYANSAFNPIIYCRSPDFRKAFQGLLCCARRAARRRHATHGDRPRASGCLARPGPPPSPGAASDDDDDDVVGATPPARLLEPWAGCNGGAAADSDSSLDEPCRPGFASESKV

A word on the EC50: it is the concentration that produces a half-maximal response. On to `CS(=O)(=O)Nc1cccc(COCCOCCCCCCNC[C@H](O)c2ccc(O)c(CO)c2)c1`, for which the results for the EC50 in data set [1], in [2] and in data set [3] were 0.0126 µM, 0.000251 µM and 0.0794 µM, respectively.
In the same order, the values of `NS(=O)(=O)c1cccc(COCCOCCCCCCNC[C@H](O)c2ccc(O)c(CO)c2)c1` are 0.0501 µM, 0.00158 µM and 0.126 µM.
For the molecule `OCc1cc([C@@H](O)CNCCCCCCOCCOCc2ccc(Cl)cc2)ccc1O`, in data set [2], the EC50 was 0.00251 µM. In other words, the single-digit nanomolar range.
Take `OCc1cc([C@@H](O)CNCCCCCCOCCOCc2c(Cl)cccc2Cl)ccc1O`: the result in the data set filed under Cavia porcellus [4] and in the data set listed under Cavia porcellus [5] was Active.
Turning to `NC(=O)Nc1cccc(COCCOCCCCCCNC[C@H](O)c2ccc(O)c(CO)c2)c1`, the EC50 in [1] is 0.02 µM; in [2], 0.00158 µM; in data set [3], 0.316 µM.
The corresponding values for `NS(=O)(=O)c1ccc(COCCOCCCCCCNC[C@H](O)c2ccc(O)c(CO)c2)cc1` are 0.1 µM, 0.002 µM and 0.398 µM.
Turning to `OCc1cc([C@@H](O)CNCCCCCCOCCOCc2ccc(O)cc2)ccc1O`, the 50% effective concentration (EC50) in [1] was 0.0794 µM; in data set [2] it was 0.00794 µM; in data set [3], 0.0631 µM.
Consider `OCc1cc([C@@H](O)CNCCCCCCOCCOCc2cc(Cl)ccc2Cl)ccc1O`, for which the EC50 in [1] is 0.0126 µM; in data set [3], 0.00794 µM.
`CC(=O)O.Cc1cc(C)cc(COCCOCCCCCCNC[C@H](O)c2ccc(O)c(CO)c2)c1`: the EC50 is 0.00794 µM in [1] and 0.00501 µM in data set [3]. In addition, the result in the data set filed under Cavia porcellus [5] was Active. Besides, the Time in [6] is reported as 6.9 min.
Take `CC(=O)O.OCc1cc([C@@H](O)CNCCCCCCOCCOCc2ccccc2)ccc1O`: the outcome in the data set listed under Cavia porcellus [4] was Active. Moreover, the EC50 in [1] is 0.0316 µM; in data set [2], 0.00251 µM; in data set [3], 0.0398 µM. Also, in data set [6], the Time worked out at 4.8 min.
The solubility is the dissolved amount per volume that the medium holds. A low value points to little dissolved substance. Consider `O=C(O)/C(=C/c1ccccc1)c1ccccc1.OCc1cc([C@@H](O)CNCCCCCCOCCOCc2c(Cl)cccc2Cl)ccc1O` [VILANTEROL .ALPHA.-PHENYL CINNAMATE], for which, in [7], the concentration in solution (solubility) was 190 µg/mL.
As a reminder, the bioavailability is the share of a dose that reaches the circulation, judged against a reference dose that is usually intravenous. One may read the EC90 as the point of the concentration-response curve where the effect stands at 90%. Turning to `OCc1cc(C(O)CNCCCCCCOCCCCc2ccccc2)ccc1O` (stereo not given) [SALMETEROL], the outcome in the data set listed under Cavia porcellus [4] and in the data set listed under Cavia porcellus [5] was Active. Besides, in the data set with Cavia porcellus [8], the Time was 10 h. Also, in [9], the bioavailability turned out to be 10%. Besides, the EC90 with Cavia porcellus [10] was 50 µM.
With `OCc1cc([C@@H](O)CNCCCCCCOCCOCc2cccc(O)c2)ccc1O`, the half-maximal effective concentration (EC50) is 0.02 µM in [1] and 0.0316 µM in [3].
In turn, `OCCOCCCCCCNC[C@H](O)c1ccc(O)c(CO)c1` showed a 50% effective concentration (EC50) in data set [3] of 12.6 µM.
In the case of `O=C(O)C(c1ccccc1)(c1ccccc1)c1ccccc1.OCc1cc([C@@H](O)CNCCCCCCOCCOCc2c(Cl)cccc2Cl)ccc1O` [VILANTEROL TRIFENATATE], in data set [7], the concentration in solution (solubility) was 33 µg/mL.
For `Cc1ccc(COCCOCCCCCCNC[C@H](O)c2ccc(O)c(CO)c2)cc1`, the EC50 in [2] was 0.00251 µM.
The term Cmax denotes the peak of the concentration-time curve. The clearance is the rate of elimination divided by the concentration. Read a high clearance as a high capacity for elimination. The term half-life denotes how long it takes for the measured level to halve. A high value points to slow decline. With `CC(=O)O.OCc1cc([C@@H](O)CNCCCCCCOCCOCc2c(Cl)cccc2Cl)ccc1O` [VILANTEROL ACETATE], the bioavailability in data set [11] was < 5%. Also, in data set [12], the Cmax was < 2 ng/mL. In addition, the EC90 with Cavia porcellus [10] came to 30 µM. The response in [3] was half-maximal at 0.794 µM (EC50). This molecule also returned a clearance in data set [13] of 123 mL/min/kg. The Time in the data set with Cavia porcellus [14] stood at 17 h; in [6], 6.6 min. Further, the half-life in data set [15] was 48 min. Besides, in data set [16], the Vd stood at 4.4 L/kg.
Consider `CC(=O)O.OCc1cc([C@@H](O)CNCCCCCCOCCOCc2cccc3ccccc23)ccc1O`, for which the outcome in the data set listed under Cavia porcellus [4] and in the data set listed under Cavia porcellus [5] was Active. Moreover, the EC50 was 0.0126 µM in [1], 0.000126 µM in [2] and 0.00501 µM in [3]. The Time in [6] amounted to 10.2 min.
